Experimental findings from patent US9693556B2, “Herbicidal pyridazinone derivatives” (SYNGENTA LIMITED, priority 2011, dated 2017) are described below.

SMILES strings stand for the structures.

Common to all, as to assay type: in vivo
Test [1] has as its system Alopecurus myosuroides (ALOMY). In words: Pre-emergence herbicidal glasshouse test on Alopecurus myosuroides. The note with it: pre-emergence; 1000 g/h; evaluated after 13 days. The method in brief: (§1)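 Plants sprayed 1 day (pre-emergence) or 8 days (post-emergence) after sowing with compound at 1000 g/h in acetone/water 50:50 with 0.5% Tween 20; glasshouse 24/16° C, 14 h light, 65% humidity. Damage assessed after 13 days, scored 1–5 (5 = 80-100%, 1 = 0-19%).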

In test [2] the test system is Setaria faberi (SETFA). Nature of the test: Pre-emergence herbicidal glasshouse test on Setaria faberi. The note with it: pre-emergence; 1000 g/h; evaluated after 13 days. The method in brief: as §1
In test [3] the test system is Echinochloa crus-galli (ECHCG). In words: Pre-emergence herbicidal glasshouse test on Echinochloa crus-galli. The note with it: pre-emergence; 1000 g/h; evaluated after 13 days. A digest of the protocol:
as §1

For test [4], the system named is Solanum nigrum (SOLNI). In words: Pre-emergence herbicidal glasshouse test on Solanum nigrum. The following applies: pre-emergence; 1000 g/h; evaluated after 13 days. The method in brief: as §1
For test [5], the system named is Amaranthus retoflexus (AMARE). Nature of the test: Pre-emergence herbicidal glasshouse test on Amaranthus retoflexus. The note with it: pre-emergence; 1000 g/h; evaluated after 13 days. The method in brief:
as §1

The subject of test [6] is Ipomoea hederacea (IPOHE). Nature of the test: Pre-emergence herbicidal glasshouse test on Ipomoea hederacea. The note with it: pre-emergence; 1000 g/h; evaluated after 13 days. A digest of the protocol: as §1
For test [7], the system named is Alopecurus myosuroides (ALOMY). In words: Post-emergence herbicidal glasshouse test on Alopecurus myosuroides. The following applies: post-emergence; 1000 g/h; evaluated after 13 days. The method in brief:
as §1

In test [8] the test system is Setaria faberi (SETFA). In words: Post-emergence herbicidal glasshouse test on Setaria faberi. The note with it: post-emergence; 1000 g/h; evaluated after 13 days. The method in brief: as §1
The test system of test [9] is Echinochloa crus-galli (ECHCG). In words: Post-emergence herbicidal glasshouse test on Echinochloa crus-galli. The note with it: post-emergence; 1000 g/h; evaluated after 13 days. The method in brief: as §1
In test [10] the test system is Solanum nigrum (SOLNI). In words: Post-emergence herbicidal glasshouse test on Solanum nigrum. The note with it: post-emergence; 1000 g/h; evaluated after 13 days. The method in brief:
as §1

For test [11], the system named is Amaranthus retoflexus (AMARE). In words: Post-emergence herbicidal glasshouse test on Amaranthus retoflexus. The following applies: post-emergence; 1000 g/h; evaluated after 13 days. A digest of the protocol:
as §1

Test [12] deals with Ipomoea hederacea (IPOHE). In words: Post-emergence herbicidal glasshouse test on Ipomoea hederacea. The following applies: post-emergence; 1000 g/h; evaluated after 13 days. The method in brief: as §1

With `Cn1ncc(-c2ccc(S(C)(=O)=O)c(C3=NOCC3)c2Cl)c(O)c1=O` [Compound 1.032], the “PRE Application ALOMY herbicidal damage (five point scale)” value (from here on “PRE Application ALOMY herbicidal damage”) in test [1] is given as 5 (5=80-100% damage). Moreover, in the test with Setaria faberi (SETFA) [2], the “PRE Application SETFA herbicidal damage (five point scale)” value (from here on “PRE Application SETFA herbicidal damage”) was 5 (5=80-100% damage). Also, in [3], the “PRE Application ECHCG herbicidal damage (five point scale)” value (from here on “PRE Application ECHCG herbicidal damage”) was 5 (5=80-100% damage). For the same molecule, the “PRE Application SOLNI herbicidal damage (five point scale)” value (from here on “PRE Application SOLNI herbicidal damage”) with Solanum nigrum (SOLNI) [4] is 5 (5=80-100% damage). Also, the “PRE Application AMARE herbicidal damage (five point scale)” value (from here on “PRE Application AMARE herbicidal damage”) in [5] was 5 (5=80-100% damage). Besides, the “PRE Application IPOHE herbicidal damage (five point scale)” value (from here on “PRE Application IPOHE herbicidal damage”) in [6] is 4 (4=60-79% damage). Besides, in test [7], the “POST Application ALOMY herbicidal damage (five point scale)” value (from here on “POST Application ALOMY herbicidal damage”) is listed as 5 (5=80-100% damage). Besides, the “POST Application SETFA herbicidal damage (five point scale)” value (shortened to “POST Application SETFA herbicidal damage”) in the test on Setaria faberi (SETFA) [8] is 5 (5=80-100% damage). Besides, the “POST Application ECHCG herbicidal damage (five point scale)” value (“POST Application ECHCG herbicidal damage” below) in test [9] is 5 (5=80-100% damage). Moreover, the “POST Application SOLNI herbicidal damage (five point scale)” value (from here on “POST Application SOLNI herbicidal damage”) with Solanum nigrum (SOLNI) [10] is 5 (5=80-100% damage). Besides, the “POST Application AMARE herbicidal damage (five point scale)” value (shortened to “POST Application AMARE herbicidal damage”) in test [11] is listed as 5 (5=80-100% damage). Also, in test [12], the “POST Application IPOHE herbicidal damage (five point scale)” value (“POST Application IPOHE herbicidal damage” below) is recorded as 5 (5=80-100% damage).

On to `Cn1ncc(-c2ccc(C(F)(F)F)cc2C(F)(F)F)c(O)c1=O` [Compound 1.033], for which the “PRE Application ALOMY herbicidal damage” value in test [1] is 1 (1=0-19% damage). In addition, the “PRE Application SETFA herbicidal damage” value with Setaria faberi (SETFA) [2] was 1 (1=0-19% damage). Moreover, the “PRE Application ECHCG herbicidal damage” value in test [3] is reported as 2 (2=20-39% damage). For the same molecule, the “PRE Application SOLNI herbicidal damage” value with Solanum nigrum (SOLNI) [4] is 5 (5=80-100% damage). Moreover, the “PRE Application AMARE herbicidal damage” value in [5] is 5 (5=80-100% damage). In addition, in [6], the “PRE Application IPOHE herbicidal damage” value is on record as 1 (1=0-19% damage). The “POST Application ALOMY herbicidal damage” value in test [7] was 2 (2=20-39% damage). For the same molecule, the “POST Application SETFA herbicidal damage” value in the test with Setaria faberi (SETFA) [8] is 1 (1=0-19% damage). Moreover, the “POST Application ECHCG herbicidal damage” value in test [9] was 2 (2=20-39% damage). Also, in the test with Solanum nigrum (SOLNI) [10], the “POST Application SOLNI herbicidal damage” value is 5 (5=80-100% damage). Besides, in test [11], the “POST Application AMARE herbicidal damage” value was 5 (5=80-100% damage). The “POST Application IPOHE herbicidal damage” value in test [12] is on record as 5 (5=80-100% damage).

Consider `COCCOc1c(S(C)(=O)=O)ccc(-c2cnn(C)c(=O)c2O)c1Cl` [Compound 1.034], for which the “PRE Application ALOMY herbicidal damage” value in test [1] was 2 (2=20-39% damage). Also, the “PRE Application SETFA herbicidal damage” value in the test with Setaria faberi (SETFA) [2] is 5 (5=80-100% damage). In addition, in test [3], the “PRE Application ECHCG herbicidal damage” value was 5 (5=80-100% damage). Besides, the “PRE Application SOLNI herbicidal damage” value in the test on Solanum nigrum (SOLNI) [4] was 5 (5=80-100% damage). Also, the “PRE Application AMARE herbicidal damage” value in test [5] is reported as 5 (5=80-100% damage). The “PRE Application IPOHE herbicidal damage” value in [6] is listed as 3 (3=40-59% damage). The “POST Application ALOMY herbicidal damage” value in test [7] is recorded as 4 (4=60-79% damage). The “POST Application SETFA herbicidal damage” value in the test on Setaria faberi (SETFA) [8] is on record as 5 (5=80-100% damage). The “POST Application ECHCG herbicidal damage” value in test [9] is reported as 5 (5=80-100% damage). In the test with Solanum nigrum (SOLNI) [10], the “POST Application SOLNI herbicidal damage” value is on record as 5 (5=80-100% damage). Further, the “POST Application AMARE herbicidal damage” value in test [11] is listed as 5 (5=80-100% damage). The “POST Application IPOHE herbicidal damage” value in [12] is 5 (5=80-100% damage).

Regarding `Cc1c(-c2cnn(C)c(=O)c2O)ccc2c1C(=O)N(C)S2(=O)=O` [Compound 1.035], in test [1], the “PRE Application ALOMY herbicidal damage” value is reported as 1 (1=0-19% damage). In addition, in the test with Setaria faberi (SETFA) [2], the “PRE Application SETFA herbicidal damage” value is listed as 1 (1=0-19% damage). Further, the “PRE Application ECHCG herbicidal damage” value in [3] was 5 (5=80-100% damage). In addition, in the test on Solanum nigrum (SOLNI) [4], the “PRE Application SOLNI herbicidal damage” value is 3 (3=40-59% damage). In [5], the “PRE Application AMARE herbicidal damage” value is given as 5 (5=80-100% damage). For the same molecule, in [6], the “PRE Application IPOHE herbicidal damage” value is 4 (4=60-79% damage). Moreover, in [7], the “POST Application ALOMY herbicidal damage” value is 2 (2=20-39% damage). Further, in the test on Setaria faberi (SETFA) [8], the “POST Application SETFA herbicidal damage” value was 1 (1=0-19% damage). In test [9], the “POST Application ECHCG herbicidal damage” value was 5 (5=80-100% damage). Moreover, the “POST Application SOLNI herbicidal damage” value in the test with Solanum nigrum (SOLNI) [10] is given as 5 (5=80-100% damage). Also, the “POST Application AMARE herbicidal damage” value in test [11] was 5 (5=80-100% damage). Further, the “POST Application IPOHE herbicidal damage” value in test [12] was 5 (5=80-100% damage).
